Data: patent US20080280810A1, “PEPTIDES HAVING AFFINITY FOR BODY SURFACES” (priority 2006, published 2008)

Tests used:
[1] = Phage ELISA on pellicle coated HAP disks; assay type: binding, human; conditions: over 10^10 pfu purified phage, anti-M13 HRP conjugate, TMB, no phage control 0.218
Method: A total of 20 selected phage candidates (Example 29) were used in a phage ELISA experiment. Purified phage lysates were used for binding to pellicle HAP disks using an anti-M13 phage antibody conjugated to horseradish-peroxidase, followed by the addition of chromogenic agent TMB, obtained from Pierce Biotechnology (Rockford, Ill.). The plates were read at A450 nm.
For each phage candidate to be tested, the pellicle coated HAP disks (3 mm diameter) was incubated for 1 h at room temperature with 200 μL of blocking buffer, consisting of 2% non-fat dry milk (Schleicher & Schuell, Inc.) in TBS. The blocking buffer was removed by aspirating the liquid out of each tube. The tube was rinsed 6 times with wash buffer consisting of TBST-0.05%. The wells were filled with 200 μL of TBST-0.5% containing 1 mg/mL BSA (bovine serum albumin) and then 10 μL (over 10^10 pfu) of purified phage stock was added. The samples were incubated at room temperature for 60 min with slow shaking. The non-binding phage were removed by washing 6 times with TBST-0.5%. Then, 100 μL of horseradish peroxidase/anti-M13 antibody conjugate (Amersham USA, Piscataway, N.J.), diluted 1:500 in the blocking buffer, was added and incubated for 1 h at room temperature. The conjugate solution was removed and was washed 6 times with TBST-0.5%. TMB (3,3′,5,5′-tetramethylbenzidine) substrate (200 μL), obtained from Pierce Biotechnology (Rockford, Ill.) was added to each well and the color was allowed to develop for 5 to 30 min, typically for 10 min, at room temperature. Then, stop solution (200 μL of 2 M H2SO4) was added to each well and the solution was transferred to a 96-well plate and the A450 was measured using a microplate spectrophotometer (Molecular Devices, Sunnyvale, Calif.).

[2] = Co-application of multi-block peptide with semi-permanent dye (Arianor Ebony), color retention; set-up: species or system human; key: ΔE of peptide sample minus peptide-free control; larger = better retention; conditions: difference in Delta E between peptide sample and peptide free control after 3 embrocation cycles (about 12 manual shampoos); pH 8.5-9.0; >2 benefit, >4 substantial benefit
Method: (§1) A 0.5% aqueous solution of Arianor Ebony (Sensient Technologies Corp, Milwaukee, Wis.) containing 3% benzyl alcohol and 0.05% diazolidinyl urea (biocide) was prepared. Dye insolubles were removed by filtration and the pH of the dye solution was adjusted to 8.50-9.0, using ethanolamine.
(§2) Approximately 1 mL of the dye solution was added to selected wells of a 24-well plate (Thomson Instrument Co., Oceanside, Calif.; part # 931565). A multi-block peptide (see Table 12) was dissolved in a solution consisting of 3 wt % benzyl alcohol and 95 wt % water to yield a peptide concentration of 2 wt % or approximately 20 mg/mL. The pH was adjusted to 8.5-9.0 using ethanolamine. The peptide solution was then pipetted into test wells containing dye solution in the amount of 1 mL or 0.2 mL respectively. The total volume in each test well was then adjusted to 2 mL where necessary using 3% aqueous benzyl alcohol (pH adjusted to 8.5-9.0 with ethanolamine). Peptide free controls consisted of 1 mL of dye solution diluted to 2 mL with the pH adjusted aqueous benzyl alcohol solution.
(§3) Baseline […] readings were made on one inch long tresses (see below) using an X-RITE® SP78™ Sphere Spectrophotometer (X-Rite, Inc., Grandville, Mich.), by placing the hair tress into the photosensor and calculating L*, a* and b* parameters representing the photometer response. All measurements were the average of three individual determinations.
(§4) The tresses (potted on one end with resin) of natural white, 85% gray or regular bleached hair (International Hair Importers and Products, Bellerose, N.Y.) were immersed in the peptide/dye solution and the entire well plate was agitated on a VORTEX-GENIE® 2 Mixer (Scientific Industries, Bohemia, N.Y.) at a speed setting of 1 for 30 minutes. The tresses were removed from the wells, rinsed for 30 seconds under flowing deionized water and then air dried.
(§5) The following complement of beads was then added to each well containing a hair tress: (8 beads in all; 4 Novagen Coli Rollers Plating Beads—sterilized (EMD Biosciences, San Diego, Calif.; Catalog No. 71013), 2 BioSpec 6.35 mm glass beads (BioSpec Products, Bartlesville, Okla.; Catalog No. 11079635), and 2 BioSpec 3.2 mm Stainless Steel Bead (Catalog No. 11079132ss).
(§6) Then 2.5 mL of aqueous 50% Pantene Pro V® shampoo (Proctor & Gamble Co., Cincinnati, Ohio) was pipetted into each well. The plate was placed on a VWR® VX-2500 Multi-tube Vortexer (VWR, West Chester, Pa.) for 5 minutes to simulate shampooing with embrocation. The hair tresses were then rinsed under flowing deionized water and air dried. This cycle was repeated two more times except that the length of time was 10 minutes for both subsequent embrocation cycles. (This treatment was previously determined to simulate approximately 12 manual shampoo cycles.) At the conclusion of the third embrocation cycle L*, a* and b* values were measured and Delta E values (ΔE) were calculated using equation 1 below:
(§7) where L*=the lightness variable and a* and b* are the chromaticity coordinates of CIELAB colorspace as defined by the International Commission of Illumination (CIE) (Minolta, Precise Color Communication—Color Control From Feeling to Instrumentation, Minolta Camera Co., 1996).
(§8) The Delta E value (ΔE) indicates color retention relative to the non-dyed hair and larger Delta E values indicate better performance. Values listed in the table represent the difference in Delta E values between the peptide-containing sample and the peptide free control. This difference is indicative of color retention after shampoo or water rinse treatments and positive values indicate better performance relative to the peptide free controls (Table 12).

[3] = as above; set-up: species or system human; conditions: difference in Delta E between peptide sample and peptide free control after 3 embrocation cycles (about 12 manual shampoos); pH 8.5-9.0; >2 benefit, >4 substantial benefit
Method: as §1, §2, §3, §4, §5, §6, §7, §8

[4] = HPLC analysis of peptide uptake by hair; assay type: binding, human; conditions: 20 mM Tris pH 7.2, 0.15 M NaCl, room temperature, no dye; peptide 0.1 mg/mL (IB5A, A5) or 0.05 mg/mL (HC 71, HC 74)
Method: The purpose of this Example was to compare the speed of uptake by measuring the amount of various peptides including peptides of the invention bound to hair at different time points using a high performance liquid chromatography (HPLC) method. The peptides, HC 71, HC 74, IB5 (the hair-binding peptide sequence in HC 71), and A5 (the hair-binding peptide sequence in HC 74), were dissolved in 10 mL of 20 mM Tris, pH 7.2 buffer containing 0.15 M NaCl to give the peptide concentrations shown in Table 11. Natural white hair, 0.54 g, (International Hair Importers & Products Inc., Bellerose, N.Y.) was pre-equilibrated with 10 mL of Tris buffer for 30 min with mixing at room temperature. Then, the buffer was drained from the hair and 10 mL of one of the peptide solutions was added. The hair was incubated with the peptide solution at room temperature without mixing and samples were taken at 0, 30 and 60 min for HPLC analysis. For peptide uptake measurements in the presence of Acid Red 33 dye, the peptide solution was mixed 1:1 with an aqueous solution of the dye (0.5 wt %). Natural white hair (0.65 g) pre-wet with deionized water, was added to the peptide solutions and the solutions were incubated at room temperature without mixing. Samples were taken at time 0, 30, and 60 min for analysis by HPLC. The samples were analyzed using HPLC to determine the concentration of the peptide remaining in solution, and by difference, the amount of peptide taken up by the hair. The HPLC analysis was done using an Agilent liquid chromatograph (Agilent Technologies Inc., Wilmington, Del.) with a 5 μm Zorbax Eclipse XDB-C18 column (Agilent Technologies Inc.). The sample was diluted with distilled water containing 0.1% trifluoroacetic acid (typically a 10-fold dilution), and 5 to 50 μL was injected using a 100 μL injection loop. A solvent gradient elution was used with two solvents: Solvent A, consisting of acetonitrile with 0.1% aqueous trifluoracetic acid, and Solvent B, consisting of water with 0.1% trifluoroacetic acid. The gradient was from 10% acetonitrile to 80% acetonitrile at a rate of 1%/min over a period of 70 min. The flow rate was 1.25 mL/min. Detection was done with a photodiode array detector at 218 nm, 230 nm, and 278 nm.

DECMHGSDVEFCTS [Pell 4]
O.D. at 450 nm [1]: 0.664

DLCSMQMMNTGCHY [Pell 5]
O.D. at 450 nm [1]: 0.83

F4-KRKRKD (LDTSFHQVPFHQKRKRKD; Peptide having affinity for hair) [Peptide F4-KRKRKD]
ΔE Retention Ebony Dye Regular Bleached Hair [2]: −2.66 | ΔE Retention Ebony dye with Natural White Hair [2]: 0.12 | ΔE Retention Ebony Dye with 85% Gray Hair [3]: 2.87

NGPDMVQSVGKHKNS [Pell 10]
O.D. at 450 nm [1]: 0.729

DECMEPLNAAHCWR [Pell 3]
O.D. at 450 nm [1]: 0.49

NNTSADNPPETDSKHHLSMS [Pell 12]
O.D. at 450 nm [1]: 0.521

TPCATYPHFSGCRA [Pell 19]
O.D. at 450 nm [1]: 0.731

NPTDHIPANSTNSRVSKGNT [Pell 15]
O.D. at 450 nm [1]: 0.567

NPTATPHMKDPMHSNAHSSA [Pell 14]
O.D. at 450 nm [1]: 0.7

KF11-EGEGED (NTSQLSTEGEGED; Peptide having affinity for hair)
ΔE Retention Ebony Dye Regular Bleached Hair [2]: −4.05 | ΔE Retention Ebony dye with Natural White Hair [2]: 3.6 | ΔE Retention Ebony Dye with 85% Gray Hair [3]: 0.94

TPPELLHGAPRS (Hair-binding peptide) [IB5A, reference compound]
% Uptake time = 0 min [4]: 0% | % Uptake time = 30 min [4]: 8%

TPCAPASFNPHCSR [Pell 18]
O.D. at 450 nm [1]: 0.416

EPTHPTMRAQMHQSLRSSSP [Pell 8]
O.D. at 450 nm [1]: 0.712

A5-KRKRKD (EQISGSLVAAPWKRKRKD; Peptide having affinity for hair) [Peptide A5-KRKRKD]
ΔE Retention Ebony Dye Regular Bleached Hair [2]: 1.09 | ΔE Retention Ebony dye with Natural White Hair [2]: 5.8 | ΔE Retention Ebony Dye with 85% Gray Hair [3]: −0.59

GNTDTTPPNAVMEPTVQHKW [Pell 9]
O.D. at 450 nm [1]: 0.755

NPTDSTHMMHARNHE [Pell 16]
O.D. at 450 nm [1]: 0.578

IB5-KRKRKD (TPPELLHGDPRSKRKRKD; Peptide having affinity for hair)
ΔE Retention Ebony Dye Regular Bleached Hair [2]: −0.44 | ΔE Retention Ebony dye with Natural White Hair [2]: 4.49 | ΔE Retention Ebony Dye with 85% Gray Hair [3]: 1.2

P-KRGRHKRPKRHK-GGG-IB5A-C (PKRGRHKRPKRHKGGGTPPELLHGAPRSC; Peptide having affinity for hair) [HC100]
ΔE Retention Ebony Dye Regular Bleached Hair [2]: −0.27 | ΔE Retention Ebony dye with Natural White Hair [2]: −4.5 | ΔE Retention Ebony Dye with 85% Gray Hair [3]: 4.1

DLCSSPSTWGSCIR [Pell 6]
O.D. at 450 nm [1]: 0.735

EQISGSLVAAPW (Hair-Binding Peptide) [Peptide A5, reference compound]
% Uptake time = 0 min [4]: 0% | % Uptake time = 30 min [4]: 2% | % Uptake time = 60 min [4]: 4%

AHPESLGIKYALDGNSDPHA [Pell 1]
O.D. at 450 nm [1]: 0.739

ASVSNYPPIHHLATSNTTVN [Pell 2]
O.D. at 450 nm [1]: 0.75

NNTWPEGAGHTMPSTNIRQA [Pell 13]
O.D. at 450 nm [1]: 0.598

A5-EGEGER (EQISGSLVAAPWEGEGER; Peptide having affinity for hair) [Peptide A5-EGEGER]
ΔE Retention Ebony Dye Regular Bleached Hair [2]: −1.0 | ΔE Retention Ebony dye with Natural White Hair [2]: 5.7 | ΔE Retention Ebony Dye with 85% Gray Hair [3]: 3.7

LDTSFHQVPFHQ (Peptide having affinity for hair) [Peptide F4, reference compound]
ΔE Retention Ebony Dye Regular Bleached Hair [2]: 0.95 | ΔE Retention Ebony dye with Natural White Hair [2]: 5.17 | ΔE Retention Ebony Dye with 85% Gray Hair [3]: 3.24

NGPEVRQIPANFEKL [Pell 11]
O.D. at 450 nm [1]: 0.607

DPNESNYENATTVSQPTRHL [Pell 7]
O.D. at 450 nm [1]: 0.831

WCTDFCTRSTPTSTSRSTTS [Pell 20]
O.D. at 450 nm [1]: 0.715
